Experimental data taken from patent US20130337014A1 (priority 2008, published 2013).

System: Clostridium perfringens
Type: in vivo, broiler chickens (Cobb X Cobb)
Conditions: CP challenged

CC[C@@H](C(=O)[C@@H](C)[C@@H](O)[C@H](C)[C@@H]1O[C@@H]([C@@H](CC)C(=O)O)CC[C@@H]1C)[C@H]1O[C@]2(C=C[C@@H](O)[C@]3(CC[C@@](C)([C@H]4CC[C@](O)(CC)[C@H](C)O4)O3)O2)[C@H](C)C[C@@H]1C [S, salinomycin]
Necrotic Enteritis Lesion Score (Day 22, 0 to 3 score): 0.10 | Average Weight Gain (kg) Days 0 to 21 (Days 0 to 21): .592 kg | Feed Conversion Ratio (feed to gain ratio) Days 0 to 21 (Days 0 to 21): 1.550 | Feed Conversion Ratio (feed to gain ratio) Days 0 to 42 (Days 0 to 42): 1.914 | Mortality (%) All Causes Days 0 to 42 (Days 0 to 42): 4.67% | Mortality (%) Necrotic Enteritis Days 0 to 42 (Days 0 to 42): 1.33% | Feed Conversion Ratio (feed to gain ratio) Days 21 to 42 (Days 21 to 42): 2.126
